Reference: US5112856A, “Therapeutic treatment of intestinal inflammation by administration of 3,4-dihydro-2H-1-benzopyran derivatives” (Hoffmann-La Roche Inc., priority 1990, dated 1992)

Tests used:
[1] = tested on: LTE4; experiment: Rat colon mucosa in vitro, short-circuit current: LTE4-induced electrolyte secretion; conditions: six animals
From the text: (§1) The rat colon mucosa bioassay system is based on the measurement of changes in salt transport across the animal tissue due to absorption or secretion, using the standard short-circuit current technique described by Ussing, et al., Acta Physiol. Scand. 23: 110-127 (1951). Diarrhea is the most common symptom of gastrointestinal inflammation and is present in all types of inflammatory bowel disease. Pantera, et al., Ital. J. Gastroenterol. 13: 24-27 (1981); Sales, et al., Arch. Int. Med. 143: 294-299 (1983); Hodgson, Br. J. Clin. Pharmac. 14: 159-270 (1982). Diarrhea results from decreases in the salt absorption or increases in the salt secretion in the bowel and can be quantified in vitro by the above mentioned method of Ussing et al. In particular, a one-cm segment of colon is removed from animals weighing 200 to 250 g, exposed in vitro to leukotrienes or to bradykinin, which are inducers of salt secretion, and the resulting change in the net salt transport with and without the presence of 6-acetyl-7-[5-(4-acetyl-3 -hydroxy-2-propylphenoxy) pentyloxy]-3,4-dihydro-2H-1-benzopyran-2-carboxylic acid as an inhibitor is measured. Tissues were mounted in pairs in Ussing chambers and short-circuited with automatic voltage clamps (from the University of Iowa Bioengineering Department). A 15-minute period of equilibrium was allowed for the preparation to reach steady state. […]

[2] = tested on: guinea pig colon; experiment: Carrageenan-induced colitis in guinea pigs, in vivo (water transport in distal colon); parameters: species or system Male/female guinea pigs (Hartley); conditions: oral
From the text: The guinea pig carrageenan-induced colitis biossay has been described by A. B. Onderdonk in Inflammatory Bowel Diseases, Martinus Nijhoff Publ., Boston, Mass., pages 126-134 (1982), and in Human Intestinal Microflora in Health and Disease (D. J. Hentger, ed.), Academic Press, New York, 1983, pages 447-479. The polysaccharide iotacarrageenan, derived from red seaweed, produces a colitis in guinea pigs that resembles ulcerative colitis in humans. Male/female guinea pigs (Hartley), weighing 400 to 650 g, were given a 3% solution of degraded carrageenan in their drinking water on a daily basis. After about 7 days, the animals began to develop diarrhea, ceased to gain weight and became lethargic. After the animals received carrageenan in this manner for 14 days, the diarrhea was quantified by measuring the water transport in the distal colon by single pass perfusion using 14C-polyethylene glycol 4000 (PEG 4000) as a marker. Control animals were given an aqueous drinking solution containing 3% mannitol in place of the carrageenan. Simultaneously, randomly selected animals from each of these two groups were treated orally with the test inhibitor compound, twice daily. […]

[3] = tested on: LTB4; experiment: Rat colon mucosa in vitro, short-circuit current: LTB4-induced electrolyte secretion; conditions: six animals
From the text: as §1

[4] = tested on: myeloperoxidase of the rat colon; experiment: Acetic acid-induced colitis in rats, in vivo (colonic myeloperoxidase); parameters: species or system Male rats (Sprague-Dawley); conditions: oral
From the text: The rat acetic acid-induced colitis biossay has been described by J. E. Krawisz, et al. in Amer. J. Proc. Gastro. Col. Rec. Surg. 31: 11-18 (1980), and by P. Sharon and W. F. Stenson in Gastroenterology 88: 55-63 (1985) and 86: 453-460 (1984). Acetic acid-induced colitis is characterized by the movement of inflammatory cells into the colon, with the number of such cells in the mucosa being measured by the activity of myeloperoxidase, a marker enzyme for these cells. Positive desirable activity is indicated by a reduction in the high levels of myeloperoxidase caused by acetic acid. Male rats (Sprague-Dawley), weighing 150 to 300 g, were pretreated twice daily for two days with either the vehicle (water, or dimethylsulfoxide) or the test inhibitor compound suspended in water or dissolved in dimethylsulfoxide and orally administered. […] Twenty four hours after the acetic acid treatment, the animals were sacrificed, the colonic mucosa was surgically removed and homogenized in an aqueous buffer at pH 6 with a Tissumizer or similar device, and myeloperoxidase was measured in the homogenate using o-phenylenediamine as a chromagen, as described by A. Voller, D. E. Bidwell and A. Bartlett in The Enzyme Linked Immunosorbent Assay (ELISA), Zoological Soc., London, 1979, pages 29-30. […]

[5] = tested on: LTD4; experiment: Rat colon mucosa in vitro, short-circuit current: LTD4-induced electrolyte secretion; conditions: six animals
From the text: as §1

[6] = tested on: antibiotic-induced colitis; experiment: Antibiotic (clindamycin)-induced colitis in hamsters, in vivo; parameters: species or system Male Syrian hamsters (LUG); conditions: for activity in clindamycin-induced colitis: oral
Experimental: Male Syrian hamsters (LUG), weighing 80 to 120 g, were each given a single dose of 175 mg/kg of clindamycin-phosphate or of clindamycin-hydrochlorideintraperitoneally, to induce colitis. Approximately seven hours after injection, the animals were given the test compound orally or intraperitoneally and the therapy was continued twice a day for a period of four more days. For oral administration, the […] was suspended in water or dissolved in dimethylsulfoxide and delivered to the animals by gavage using an oral intubating needle. The effect of the therapy was measured by use of the Hazard Ratio, which is the ratio of the mortality of the animals treated with the test inhibitor compound contained in a vehicle to the mortality of the animals treated with the vehicle containing none of the test inhibitor compound. The mortality was determined for the test inhibitor compound-treated groups and for the vehicle-treated groups, respectively, twice daily, and was evaluated by comparing the survival curves of each group. The Kaplan-Meier estimate of the survival curve was calculated for each group and the Mantel-Cox (logrank) test was used to compare the survival curve of each test inhibitor compound-treated (therapy) group to that of the corresponding vehicle control group. […]

[7] = tested on: LTC4; experiment: Rat colon mucosa in vitro, short-circuit current: LTC4-induced electrolyte secretion; conditions: six animals
From the text: as §1

[8] = 10 mg/kg oral, in 0.15 ml water, >1.0 = prolongs survival vs. vehicle

CCCc1c(OCCCCCOc2cc3c(cc2C(C)=O)CCC(C(=O)O)O3)ccc(C(C)=O)c1O (racemic) [6-acetyl-7-[5-(4-acetyl-3-hydroxy-2-propylphenoxy)pentyloxy]-3,4-dihydro-2H-1-benzopyran-2-carboxylic acid]
% Inhibition Against Leukotrienes, LTE4 ([1]; 1 μM inhibitor): 29.8 ± 15.0%
% Inhibition Against Leukotrienes, LTE4 ([1]; 10 μM inhibitor): 44.2 ± 9.8%
water transport rate in the colon ([2]; 10 and 30 mg/kg, carrageenan-diseased animals (FIG. 5)): water transport rates about equal to that of the control animals
% Inhibition Against Leukotrienes, LTB4 ([3]; 1 μM inhibitor): 44.4 ± 13.1%
% Inhibition Against Leukotrienes, LTB4 ([3]; 10 μM inhibitor): 69.6 ± 11.9%
activity in reducing myeloperoxidase of the rat colon ([4]; 30 and 90 mg/kg (FIG. 3)): active
% Inhibition Against Leukotrienes, LTD4 ([5]; 1 μM inhibitor): 30.8 ± 15.4%
% Inhibition Against Leukotrienes, LTD4 ([5]; 10 μM inhibitor): 62.4 ± 10.0%
Hazard Ratio [6, 8]: 3.80
Hazard Ratio ([6]; 60 mg/kg intraperitoneal, in 0.075 ml PEG400, >1.0 = prolongs survival vs. vehicle): 4.77
Hazard Ratio ([6]; 60 mg/kg oral, in 0.15 ml water, >1.0 = prolongs survival vs. vehicle): 12.0
Hazard Ratio ([6]; 100 mg/kg oral, in 0.15 ml water, >1.0 = prolongs survival vs. vehicle): 64.2
edema, hemorrhaging, congestion, necrosis, focal erosions, inflammatory cell infiltration of cecum (and colon) ([6]; 60 or 100 mg/kg): In most cases these effects were reduced or abolished
diarrhea ([6]; clindamycin-treated hamsters): reduced the diarrhea
histopathology of the cecum and colon ([6]; clindamycin-treated hamsters): substantially benefited the histopathology of the cecum and colon
survival of clindamycin-treated animals ([6]; clindamycin-treated hamsters): prolonging the survival
Hazard Ratio ([6]; ip, 10 mg/kg): 2.87
activity in clindamycin-induced colitis ([6]; doses ranging from 10 to 100 mg/kg): active
% Inhibition Against Leukotrienes, LTC4 ([7]; 1 μM inhibitor): 9.5 ± 19.2%
% Inhibition Against Leukotrienes, LTC4 ([7]; 10 μM inhibitor): 57.1 ± 19.7%

O=C1CCN(c2ccccc2)N1 [phenidone, reference compound]
activity in reducing myeloperoxidase of the rat colon ([4]; 100 and 200 mg/kg (FIG. 2)): active

CCCc1c(OCC(O)COc2ccc3c(=O)cc(C(=O)O)oc3c2CCC)ccc(C(C)=O)c1O (stereo not drawn) [Comparison 1, 7-[3-(4-acetyl-3-hydroxy-2-propylphenoxy)-2-hydroxypropoxy]-4-oxo-8-propyl-4H-1-benzopyran-2-carboxylic acid, reference compound]
Hazard Ratio [6, 8]: 1.42
Hazard Ratio ([6]; ip, 10 mg/kg): 2.02
activity in clindamycin-induced colitis ([6]; 10 mg/kg): inactive

CCCc1c(OCCCOc2ccc3c(=O)cc(CCC(=O)O)oc3c2CCC)ccc(C(C)=O)c1O [Comparison 2, 7-[3-(4-acetyl-3-hydroxy-2-propylphenoxy)propoxy]-4-oxo-8-propyl-4H-1-benzopyran-2-propanoic acid, reference compound]
Hazard Ratio ([6]; 13 mg/kg oral, in 0.15 ml water, >1.0 = prolongs survival vs. vehicle): 1.68
activity in clindamycin-induced colitis ([6]; 10 mg/kg): inactive

O=C(O)c1cc(/N=N/c2ccc(S(=O)(=O)Nc3ccccn3)cc2)ccc1O [sulfasalazine, reference compound]
water transport in the colon ([2]; 100 mg/kg, carrageenan-diseased animals (FIG. 4)): restored the water transport in the colon of the diseased animals from a net secretory level to a level about that of the control animals
